Test system: heterotrophic micro-organisms
Assay: BOD analyses with increasing perchlorate concentrations (respirometric, activated sludge)
Format: cell-based
Details: activated sludge from a MBBR reactor; perchlorate 5 and 35 mg L^-1; data not shown
Experimental: BOD analyses : For these measurements, the range was 0 - 400 mgO2 L^-1, the BOD test solutions were composed of: 141.6 mL of a mixture of carboxylic acids: oxalic acid (625 mg L^-1), maleic acid (137 mg L^-1), glyoxylic acid (261 mg L^-1), and formic acid oxalic acid (321 mg L^-1); 10 mL of a buffer solution: KH2PO4 (8.6 g L^-1), K2HPO4 (21.75 g L^-1), (Na2HPO4,2H2O) (33.4 g L^-1), NH4Cl (1.7 g L^-1); 0.4 mL of- Allylthiourea (C4H8N2S) (1 g L^-1), and 1 mL of activated sludge from a MBBR reactor who had been previously fed with the raw MLL for 4 months, completed with 11 mL concentrate solutions of perchlorate to obtain respective concentrations in perchlorate of 5 and 35 mg L^-1 in the final 164 mL liquid volume.
BOD analyses with increasing perchlorate concentrations have been performed following a similar procedure as previously explained in the last section. […]

[O-][Cl+3]([O-])([O-])O [perchlorate]
effect on heterotrophic micro-organisms: inihibiting effect

— patent publication EP4574773A1, “DEVICE AND METHOD FOR TREATING CO[…] EFFLUENTS” (Université Gustave Eiffel, priority 2023, dated 2025)
